Test results as given in patent US20250017895A1, “FLAVANOID CONTAINING COMPOSITIONS AND METHODS OF USE THEREOF FOR THE TREATMENT OF MITOCHONDRIAL DISORDERS” (priority 2021, published 2025).
“Also recorded” adds a separate entry of the source.

Assays:
[1] = tested on: gas-1(fc21) ndufs2−/− complex I disease mutant worms; test: C. elegans gas-1(fc21) lifespan analysis; assay type: in vivo; conditions: FUDR used
From the text: FIG. 2C, the Table below FIGS. 2A and 2B indicates specific values and P values calculated in Graphpad Prism v5.0 for graph shown in FIG. 2B (survival data is shown in days).
(§1) Neuromuscular activity, and lifespan were quantified in the C. elegans gas-1(fc21) ndufs2^−/− mutants. A semi-automated screening method (Mathew et al, 2016) was used to test drug treatment effects on an integrated C. elegans health endpoint of fecundity, brood size, and behavior.
(−) Epicatechin and (+) Epicatechins act through mimicry of the endogenous mitochondrial steroid 11-β-hydroxypregnenolone (11-OHP), a potent inducer of mitochondrial biogenesis. C. elegans nematode strains studied included wild-type (N2 Bristol) and gas-1(fc21) mutants. […] FIGS. 2D, 2E and 2F are graphs show a side-by-side comparison of (+)-epicatechin, (−)-epicatechin and 11-0HP on gas-1(fc-21) worm survival.

[2] = tested on: nutrient sensing signaling network (NSSN) gene expression; test: NSSN gene expression and RNAseq KEGG pathway profiling in gas-1(fc21) worms; assay type: in vivo, C. elegans; conditions: 24 hours; for MAPK signaling pathway expression (RNAseq, KEGG): relative to DMSO-only buffer
From the text: RQ, relative quantitation. […] Pathways marked with a star are also positively modulated in this same mitochondrial disease animal model by combination glucose+nicotinic acid+N-acetylcysteine triple therapy.
It is already evident that epicatechin therapy in some diseases can favorably alter the activities of central NSSN nodes, such as AMPK, that are known to regulate cell proliferation, autophagy, and mitochondrial proliferation. […] The pathways marked with a star can similarly be restored in gas-1(fc21) complex I deficient worms by combination therapy of glucose+nicotinic acid+N-acetylcysteine.

[3] = tested on: gas-1(fc21) mitochondrial complex I disease worms; test: Worm neuromuscular activity by body bend rate analysis; assay type: in vivo, C. elegans; conditions: 100 nMol
From the text: FIGS. 5A and 5B: Worm neuromuscular activity as assayed by body bend rate analysis was reduced in gas-1(fc21) mitochondrial complex I disease ndufs2^−/− worms relative to wild-type (N2 Bristol) worms.
as §1

AB (wild-type) zebrafish = test: AB wild-type zebrafish swimming activity with high-dose rotenone; assay type: in vivo, Danio rerio
From the text: Each symbol indicates one fish. **, p<0.01. ***, p<0.001.
EP07, 11-hydroxyprogesterone. **, p<0.01. Each symbol conveys activity of one well with n=8 animals/well in a 96-well plate, as quantified in dark-cycle analysis in the Zebrabox (Viewpoint).
Swimming activity (Zebrabox) was quantified in first five-minute periods of three consecutive dark cycles across 3 biological replicate experiments. Activity score was normalized to percent of wild-type concurrent controls. […] AB (wild-type) zebrafish had reduced swimming activity with high dose (70 nM) rotenone exposure for 4 hours on 7 dpf.
The indicated agents were added at 5 and 6 dpf, twice a day. 70 nM rotenone was added on 7 dpf. 4 hours later the larvae were transferred into a 96 well plate (1fish per well, 8 wells per condition), 96-well plates were immediately placed into NOLDUS to evaluate swim activity in repeating light-dark exposure. Swim activity effects were averaged in first 5 minutes of each light-off (‘dark’) period across all light on/off cycles.

[4] = tested on: gas-1(fc21) ndufs2−/− mutant worms; test: In vivo terminal pharyngeal bulb fluorescence (MitoSOX, MitoTracker Green, TMRE) in gas-1(fc21) worms; set-up: species or system C. elegans
Procedure: In each panel, n conveys the number of animals studied per conditions. Bars and error bars convey mean and standard error, respectively.
Mitochondrial oxidant burden (MitoSOX Red), membrane potential (tetramethylrhodamine ethyl ester, TMRE), and mitochondrial content (MitoTracker Green FM, MTG) were performed in C. elegans at 20° C. using in vivo terminal pharyngeal bulb relative fluorescence microscopic quantitation. […] Worms were then paralyzed in situ with 5 mg/ml levamisole. Photographs were taken in a darkened room at 160× magnification with a Cool Snap cf2 camera (Nikon, Melville, N.Y.). A CY3 fluorescence cube set (MZFLIII, Leica, Bannockburn, Ill.) was used for MitoSOX and TMRE. A GFP2 filter set (Leica) was used for MitoTracker Green FM. Respective exposure times were 2 s, 320 ms, and 300 ms for each of MitoSOX, TMRE, and MitoTracker Green FM. The resulting images were background subtracted, and the nematode terminal pharyngeal bulb was manually circled to obtain mean intensity of the region by using Fiji Is Just ImageJ. Fluorescence data for each strain were normalized to its same day control to account for day-to-day variation. A minimum of 3 independent experiments of approximately 50 animals per replicate were studied per strain per dye. The significance of the difference in the mean fluorescence intensity between strains under different experimental conditions was assessed by mixed-effect ANOVA, which analyzes potential batch effect due to samples being experimentally prepared, processed, and analyzed on different days by including a batch random effect in the model. A statistical significance threshold was set at P<0.05. All statistical analyses were performed in SAS 9.3.
FIGS. 4A-4E show in vivo quantification of relative mitochondrial oxidant burden, mitochondrial content, and mitochondrial membrane potential in gas-1(fc21) complex I disease worms.

[5] = tested on: FBXL4-human disease patient fibroblasts; test: FBXL4 patient fibroblast cell death in galactose; assay type: cell-based; conditions: 20 nM; 72 hours in galactose
Procedure: (§2) Human fibroblasts were studied from a subject harboring a 1067del (p.Gly356Alafs*15) nonsense mutation in the maternal FBXL4 allele and a c. 1790A>C (p.GLn597Pro) missense mutation in the paternal FBXL4 allele (Gal et al, 2013). Fibroblasts were cultured in DMEM (1 g/L glucose, 0.8 g/L L-Glutamine, 110 mg/L Sodium Pyruvate). Light, fluorescence, confocal microscopy and transmission electron microscopy (TEM, Lavorato et al. 2017) methods were used to analyze proband fibroblasts and mitochondrial morphology at baseline and following metabolic stress induced by incubating cells for 48 hours in glucose/uridine-free media. Mitotracker green was used for fluorescence microscopy, Tom20 Antibody (Santa Cruz) and DAPI was used for confocal microscopy.

[6] = tested on: human fibroblasts from a patient with FBXL4 disease; test: FBXL4 patient fibroblast mitochondrial content by FACS of Mitotracker Green; assay type: cell-based; conditions: for increase in cellular mitochondrial content compared to baseline: overnight incubation, data not shown; for improvement of mitochondrial content: 24 hours, galactose media
Procedure: as §2

ndufs2−/− zebrafish = ndufs2−/− zebrafish dark-induced swimming activity with low-dose rotenone (Zebrabox); assay type: in vivo, Danio rerio
[7] = tested on: Pdss2kd/kd homozygous missense mutant mice; test: Liver mitochondrial content (VDAC western blot, citrate synthase activity) in Pdss2kd/kd mice; assay type: in vivo; conditions: 5 μg/mL or 10 μg/mL in drinking water; both sexes
Pdss2kd/kd mice = test: Liver NAD+, NADH and NADH:NAD+ redox analysis in Pdss2kd/kd mice; assay type: in vivo; conditions: 5 μg/mL to 10 μg/mL in drinking water; 2 months
From the text: FIGS. 17A-17E: Biochemical analysis of mitochondrial amount (citrate synthase activity) and NADH:NAD+ redox balance in coenzyme Q deficient Pdss2^kd/kd mice. […] Biochemical studies are shown both by sex and all grouped together, where n=number of animals studied per group.
Untreated mice included 2M and 1F.

[8] = tested on: cell or animal models of primary RC dysfunction; test: Overall observations across cell and animal models of primary RC dysfunction
[9] = tested on: Human podocytes (renal glomerular cells); test: Human podocyte viability / cell death under rotenone complex I inhibition; conditions: for cell death caused by rotenone (45% cell death): 12.5 nM rotenone
[10] = 10 nMol, 72 hours, redosing every 24 hours

CC(=O)[C@H]1CC[C@H]2[C@@H]3CC=C4C[C@@H](O)CC[C@]4(C)[C@H]3[C@@H](O)C[C@]12C [11-β-hydroxypregnenolone]
lifespan rescue compared to buffer-only treated gas-1(fc21) worms ([1]; 1 nMol): Significant lifespan rescue
lifespan rescue compared to buffer-only treated gas-1(fc21) worms ([1]; 10 nMol): Significant lifespan rescue
MAPK signaling pathway expression (RNAseq, KEGG) [2]: uniquely and substantially modulated
impaired neuromuscular function (body bend rate) toward wild-type [3]: protective; also recorded: significantly rescued
increase in swimming activity toward AB controls (AB (wild-type) zebrafish; 2 nM pre-treatment from 5 dpf, high-dose (70 nM) rotenone 4 hours at 7 dpf): ~25%
swimming activity (AB (wild-type) zebrafish; 6 nM, high-dose (70 nM) rotenone): significantly improved

Oc1cc(O)c2c(c1)O[C@H](c1ccc(O)c(O)c1)[C@H](O)C2 [(−) epicatechin]
lifespan rescue compared to buffer-only treated gas-1(fc21) worms ([1]; 10 nMol): Significant lifespan rescue
lifespan rescue compared to buffer-only treated gas-1(fc21) worms ([1]; 100 nMol): Significant lifespan rescue
impaired neuromuscular function (body bend rate) toward wild-type [3]: significantly rescued

Oc1cc(O)c2c(c1)O[C@@H](c1ccc(O)c(O)c1)[C@@H](O)C2 [(+) epicatechin]
lifespan rescue compared to buffer-only treated gas-1(fc21) worms ([1]; 1 nMol): Significant lifespan rescue
median survival ([1]; 1 nMol, buffer-only gas-1(fc21) 19 days): 23 days
lifespan rescue compared to buffer-only treated gas-1(fc21) worms ([1]; 10 nMol): Significant lifespan rescue
maximum survival ([1]; 10 nMol, buffer-only gas-1(fc21) 27 days): 31 days
Daf-16 (FOXO) expression, downregulated in gas-1(fc21) ([2]; 10 nM): substantially upregulated
Par-4 (LKB1) expression, downregulated in gas-1(fc21) ([2]; 10 nM): increased
SOD2 (mnSOD) expression, upregulated in gas-1(fc21) ([2]; 10 nM, relative to wild-type levels): normalized
MAPK signaling pathway expression (RNAseq, KEGG) [2]: uniquely and substantially modulated
improvement of mitochondrial membrane potential towards wild type levels ([4]; 10 nM, 24 hours): 62%
improvement in mitochondrial content (MitoTracker Green) ([4]; 10 nM, 24 hours, most improved concentration): 39%
mitochondrial content ([4]; 1 nMol, 24 hours): significantly rescued
mitochondrial oxidant burden ([4]; 1 nMol, 24 hours): significantly rescued
mitochondrial content ([4]; 10 nMol, 24 hours): significantly rescued
mitochondrial membrane potential ([4]; 10 nMol, 24 hours): significantly recued
mitochondrial oxidant burden ([4]; 10 nMol, 24 hours): significantly rescued
mitochondrial content [4, 10]: significant rescue; also recorded: significantly rescued
mitochondrial oxidant burden [4, 10]: complete reversal; also recorded: significantly rescued
mitochondrial content ([4]; 100 nMol, 24 hours): significantly rescued
mitochondrial oxidant burden ([4]; 100 nMol, 24 hours): significantly rescued
mitochondrial oxidant burden (MitoSox) ([4]; all concentrations of 3-log order dose range, 24 hours): complete normalization
impaired neuromuscular function (body bend rate) toward wild-type [3]: rescues; also recorded: significantly rescued
increased cell death in galactose [5]: significantly rescued
increase in cellular mitochondrial content compared to baseline ([6]; 1 nM): 14%
increase in cellular mitochondrial content compared to baseline ([6]; 10 nM): 21%
mitochondrial content ([6]; 1 nMol to 20 nMol range): significantly increased
improvement of mitochondrial content ([6]; 1 nMol): 70%
improvement of mitochondrial content ([6]; 10 nMol): 70%
swimming activity (ndufs2−/− zebrafish; 100 nM, low-dose (12 nM) rotenone): significantly improved
increase in swimming activity toward wild-type controls (ndufs2−/− zebrafish; 100 nMol pre-treatment from 5 dpf, 12 nMol rotenone at 7 dpf): ~25%
citrate synthase activity in liver [7]: substantially increased
NAD+ deficiency / NADH:NAD+ redox imbalance in liver (Pdss2kd/kd mice): did not correct
effectiveness of low (nanomolar range) versus higher (micromolar range) concentrations ([8]; C. elegans and human cell studies): more effective than higher
adverse effects ([8]; cell or animal models of primary RC dysfunction): No adverse effects
cell death caused by rotenone (45% cell death) ([9]; 1 nM): not
cell death caused by rotenone (45% cell death) ([9]; 10 nM): improved
podocyte viability upon RC inhibition ([9]; 10 nM, galactose media, 25 nM rotenone, 48 hours): significantly improved
podocyte viability upon RC inhibition ([9]; 10 nM, glucose media, 35 nM rotenone, 48 hours): significantly improved
cell death caused by rotenone (45% cell death) ([9]; 100 nM): improved
improvement in cell viability ([9]; 10 to 100 nanomolar, rotenone treated human cells): approximately 50%
effectiveness on podocyte viability compared with the other enantiomer ([9]; rotenone, 48 hours): more effective than (−) epicatechin
